Measurements taken from US10206394B2, “Herbicidal compounds” (Syngenta Participations AG, priority 2014, dated 2019).
Where two headings read alike, the source gives them in different places.

How the values were obtained:
Assay in all cases: Glasshouse assay for herbicidal activity (pre- and post-emergence), percentage phytotoxicity
Type in all cases: in vivo
[1] = test system: Lolium perenne (LOLPE); settings: Lolium perenne
Method in brief: (§1)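 Seeds were sown in standard soil in pots and grown one day (pre-emergence) or about 12 days (post-emergence) before herbicide application. Plants were kept at 24/18 °C (warm-climate) or 20/16 °C (cool-climate) day/night, 16 h light, 65% humidity, watered twice daily, and damage was scored visually at 15 DAA (POST) or 20 DAA (PRE).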

[2] = test system: Avena fatua (AVEFA); settings: Avena fatua
Method in brief: as §1

[3] = test system: Alopecurus myosuroides (ALOMY); settings: Alopecurus myosuroides
Method in brief: as §1

[4] = test system: Echinochloa crus-galli (ECHCG); settings: Echinochloa crus-galli
Method in brief: as §1

[5] = post-emergence, 360 h, Rate 250 g/ha, post-emergence, visual assessment 15 DAA, 100%=total damage, 0%=no damage, read-out: Post-emergence herbicidal activity (percentage phytotoxicity) LOLPE POST
[6] = pre-emergence, 480 h, Rate 250 g/ha, pre-emergence, visual assessment 20 DAA, 100%=total damage, 0%=no damage, read-out: Pre-emergence herbicidal activity (percentage phytotoxicity) LOLPE PRE
[7] = post-emergence, 360 h, Rate 250 g/ha, post-emergence, visual assessment 15 DAA, 100%=total damage, 0%=no damage, read-out: Post-emergence herbicidal activity (percentage phytotoxicity) AVEFA POST
[8] = pre-emergence, 480 h, Rate 250 g/ha, pre-emergence, visual assessment 20 DAA, 100%=total damage, 0%=no damage, read-out: Pre-emergence herbicidal activity (percentage phytotoxicity) AVEFA PRE
[9] = post-emergence, 360 h, Rate 250 g/ha, post-emergence, visual assessment 15 DAA, 100%=total damage, 0%=no damage, read-out: Post-emergence herbicidal activity (percentage phytotoxicity) ALOMY POST
[10] = pre-emergence, 480 h, Rate 250 g/ha, pre-emergence, visual assessment 20 DAA, 100%=total damage, 0%=no damage, read-out: Pre-emergence herbicidal activity (percentage phytotoxicity) ALOMY PRE
[11] = post-emergence, 360 h, Rate 250 g/ha, post-emergence, visual assessment 15 DAA, 100%=total damage, 0%=no damage, read-out: Post-emergence herbicidal activity (percentage phytotoxicity) ECHCG POST
[12] = pre-emergence, 480 h, Rate 250 g/ha, pre-emergence, visual assessment 20 DAA, 100%=total damage, 0%=no damage, read-out: Pre-emergence herbicidal activity (percentage phytotoxicity) ECHCG PRE
[13] = post-emergence, 360 h, Rate 250 g/ha, post-emergence, assessed visually 15 DAA, 100%=total damage, 0%=no damage, read-out: Post-emergence herbicidal activity (percentage phytotoxicity) LOLPE POST
[14] = pre-emergence, 480 h, Rate 250 g/ha, pre-emergence, assessed visually 20 DAA, 100%=total damage, 0%=no damage, read-out: Pre-emergence herbicidal activity (percentage phytotoxicity) LOLPE PRE
[15] = post-emergence, 360 h, Rate 250 g/ha, post-emergence, assessed visually 15 DAA, 100%=total damage, 0%=no damage, read-out: Post-emergence herbicidal activity (percentage phytotoxicity) AVEFA POST
[16] = pre-emergence, 480 h, Rate 250 g/ha, pre-emergence, assessed visually 20 DAA, 100%=total damage, 0%=no damage, read-out: Pre-emergence herbicidal activity (percentage phytotoxicity) AVEFA PRE
[17] = post-emergence, 360 h, Rate 250 g/ha, post-emergence, assessed visually 15 DAA, 100%=total damage, 0%=no damage, read-out: Post-emergence herbicidal activity (percentage phytotoxicity) ALOMY POST
[18] = pre-emergence, 480 h, Rate 250 g/ha, pre-emergence, assessed visually 20 DAA, 100%=total damage, 0%=no damage, read-out: Pre-emergence herbicidal activity (percentage phytotoxicity) ALOMY PRE
[19] = post-emergence, 360 h, Rate 250 g/ha, post-emergence, assessed visually 15 DAA, 100%=total damage, 0%=no damage, read-out: Post-emergence herbicidal activity (percentage phytotoxicity) ECHCG POST
[20] = pre-emergence, 480 h, Rate 250 g/ha, pre-emergence, assessed visually 20 DAA, 100%=total damage, 0%=no damage, read-out: Pre-emergence herbicidal activity (percentage phytotoxicity) ECHCG PRE
[21] = post-emergence, 360 h, 250 g/ha, post-emergence, 15 DAA, visual assessment (100%=total damage, 0%=no damage), read-out: Post-emergence herbicidal activity (percentage phytotoxicity) LOLPE POST
[22] = pre-emergence, 480 h, 250 g/ha, pre-emergence, 20 DAA, visual assessment (100%=total damage, 0%=no damage), read-out: Pre-emergence herbicidal activity (percentage phytotoxicity) LOLPE PRE
[23] = post-emergence, 360 h, 250 g/ha, post-emergence, 15 DAA, visual assessment (100%=total damage, 0%=no damage), read-out: Post-emergence herbicidal activity (percentage phytotoxicity) AVEFA POST
[24] = pre-emergence, 480 h, 250 g/ha, pre-emergence, 20 DAA, visual assessment (100%=total damage, 0%=no damage), read-out: Pre-emergence herbicidal activity (percentage phytotoxicity) AVEFA PRE
[25] = post-emergence, 360 h, 250 g/ha, post-emergence, 15 DAA, visual assessment (100%=total damage, 0%=no damage), read-out: Post-emergence herbicidal activity (percentage phytotoxicity) ALOMY POST
[26] = pre-emergence, 480 h, 250 g/ha, pre-emergence, 20 DAA, visual assessment (100%=total damage, 0%=no damage), read-out: Pre-emergence herbicidal activity (percentage phytotoxicity) ALOMY PRE
[27] = post-emergence, 360 h, 250 g/ha, post-emergence, 15 DAA, visual assessment (100%=total damage, 0%=no damage), read-out: Post-emergence herbicidal activity (percentage phytotoxicity) ECHCG POST
[28] = pre-emergence, 480 h, 250 g/ha, pre-emergence, 20 DAA, visual assessment (100%=total damage, 0%=no damage), read-out: Pre-emergence herbicidal activity (percentage phytotoxicity) ECHCG PRE

| Structure (SMILES) | pest or weed control at 250 g/ha [1, 13] [%] | pest or weed control at 250 g/ha [1, 14] [%] | pest or weed control at 250 g/ha [2, 16] [%] | pest or weed control at 250 g/ha [3, 18] [%] | pest or weed control at 250 g/ha [4, 19] [%] | pest or weed control at 250 g/ha [4, 20] [%] | pest or weed control at 250 g/ha [1, 21] [%] | pest or weed control at 250 g/ha [1, 22] [%] | pest or weed control at 250 g/ha [2, 23] [%] | pest or weed control at 250 g/ha [2, 24] [%] | pest or weed control at 250 g/ha [3, 25] [%] | pest or weed control at 250 g/ha [3, 26] [%] | pest or weed control at 250 g/ha [4, 27] [%] | pest or weed control at 250 g/ha [4, 28] [%] | also measured |
| --- | --- | --- | --- | --- | --- | --- | --- | --- | --- | --- | --- | --- | --- | --- | --- |
| Cc1cc(-c2ncc(Cl)cn2)cc(C)c1C1C(=O)CC(CC(=O)N(C)C(C)C)C1=O (stereo not drawn) [Compound B351] |  |  |  |  |  |  |  |  |  |  |  |  |  |  | pest or weed control at 250 g/ha [1, 5]: 100%; pest or weed control at 250 g/ha [1, 6]: 100%; pest or weed control at 250 g/ha [2, 7]: 100%; pest or weed control at 250 g/ha [2, 8]: 90%; pest or weed control at 250 g/ha [3, 9]: 100%; pest or weed control at 250 g/ha [3, 10]: 100%; pest or weed control at 250 g/ha [4, 11]: 100%; pest or weed control at 250 g/ha [4, 12]: 100% |
| CCN(C)C(=O)CC1CC(=O)C(c2c(C)cc(-c3ncc(Cl)cn3)cc2C)C1=O (stereo not drawn) [Compound B347] |  |  |  |  |  |  |  |  |  |  |  |  |  |  | pest or weed control at 250 g/ha [1, 5]: 100%; pest or weed control at 250 g/ha [1, 6]: 100%; pest or weed control at 250 g/ha [2, 7]: 100%; pest or weed control at 250 g/ha [2, 8]: 100%; pest or weed control at 250 g/ha [3, 9]: 100%; pest or weed control at 250 g/ha [3, 10]: 100%; pest or weed control at 250 g/ha [4, 11]: 100%; pest or weed control at 250 g/ha [4, 12]: 100% |
| Cc1cc(C)c(C2C(=O)CC(CC(=O)NC3CCOCC3)C2=O)c(C)c1 (stereo not drawn) [Compound A17] | 80 | 70 | 40 | 70 | 80 | 70 |  |  |  |  |  |  |  |  | pest or weed control at 250 g/ha [2, 15]: 70%; pest or weed control at 250 g/ha [3, 17]: 80% |
| C=CCNC(=O)CC1CC(=O)C(c2c(C)cc(-c3ncc(Cl)cc3F)cc2C)C1=O (stereo not drawn) [Compound B116] |  |  |  |  |  |  | 100 | 100 | 100 | 90 | 100 | 100 | 100 | 100 |  |
| Cc1cc(-c2cncnc2)cc(C)c1C1C(=O)CC(CC(=O)NCc2ncccc2Cl)C1=O (stereo not drawn) [Compound A143] | 20 | 10 | 0 | 0 | 40 | 10 |  |  |  |  |  |  |  |  |  |
| COCCCNC(=O)CC1CC(=O)C(c2c(C)cc(-c3ncc(F)cn3)cc2C)C1=O (stereo not drawn) [Compound B106] |  |  |  |  |  |  | 100 | 90 | 100 | 70 | 100 | 80 | 100 | 100 |  |
| Cc1cc(C)c(C2C(=O)CC(CC(=O)NCc3ccccc3Br)C2=O)c(C)c1 (stereo not drawn) [Compound B22] |  |  |  |  |  |  | 80 | 90 | 20 | 100 | 30 | 30 | 80 | 90 |  |
| CCC(C)NC(=O)CC1CC(=O)C(c2c(C)cc(Br)cc2C)C1=O (stereo not drawn) [Compound B120] |  |  |  |  |  |  | 90 | 90 | 90 | 70 | 80 | 80 | 80 | 80 |  |
| Cc1ccc(CNC(=O)CC2CC(=O)C(c3c(C)cc(C)cc3C)C2=O)cc1 (stereo not drawn) [Compound B14] |  |  |  |  |  |  | 90 | 90 | 80 | 70 | 70 | 70 | 90 | 70 |  |
| Cc1cc(-c2ncc(Cl)cc2F)cc(C)c1C1C(=O)CC(CC(=O)NCc2cnc(Cl)s2)C1=O (stereo not drawn) [Compound A128] | 100 | 90 | 80 | 80 | 100 | 100 |  |  |  |  |  |  |  |  | pest or weed control at 250 g/ha [2, 15]: 100%; pest or weed control at 250 g/ha [3, 17]: 100% |
